Assay results reported in patent US6214795A, “Peptide compounds useful for modulating FGF receptor activity” (Praecis Pharmaceuticals, Inc., priority 1996, dated 2001).
Read-outs that look alike come from different tables or passages of the source. Residues, ends and D or L forms follow the SMILES beside them. No end group written: not given here. *: point of attachment. Biotin = O=C1N[C@H]2[C@H](CS[C@H]2CCCCC(=O)*)N1

Key:
[1] = target: FGFR2-IIIC (Homo sapiens, UniProt P21802); assay: FGF receptor binding assay: inhibition of 125I-bFGF binding to FGF receptor
Experimental: The ability of a peptide compound to bind to an FGF receptor can be determined using one or both of the receptor binding assays described in this example, which measure the ability of a test compound to inhibit the binding of radiolabeled bFGF to the FGF receptor. The first assay is a cell-based assay, utilizing FGF receptor-expressing cells. Cells expressing an FGF receptor are seeded on a 96 well plate (50,000 cells/well) and incubated overnight at 37° C., 5% CO2. The cells are then washed once with binding buffer (Dulbecco's Modified Eagle's Medium (DMEM) with HEPES, gelatin and heparin). A test peptide is diluted to the desired concentration in binding buffer with heparin (15 U/ml) and added to the cells (25 μl per well). ^125 I-bFGF (50,000 cpm/well; Amersham Life Sciences), diluted in binding buffer with heparin, is added to each well (25 μl per well so that final volume is 50 μl). The cells are incubated in a humidified chamber at 4° C. for 3 hours. The cells are washed twice with binding buffer to remove unbound material. The washed cells are then dissolved in 100 μl of 1N NaOH and counted in a gamma counter. The ability of a test compound to bind to FGFR is evidenced by the reduced binding of ^125 I-bFGF to the cells in the presence of the test compound as compared to the binding of ^125 I-bFGF to the cells in the absence of the test compound.
A second FGFR binding assay utilizes biotinylated soluble FGFR. Biotinylated FGFR is mixed in an eppendorf tube with ^125 I-bFGF and a test compound in binding buffer. The tubes are placed on an eppendorf roller at 4° C. for 1.5 hours. Magnetic streptavidin beads (CPG, Inc.) are prepared by washing twice with binding buffer. After the 1.5 hour incubation of the tubes, 15 μl of magnetic streptavidin beads are added to each tube and continued on the eppendorf roller for 10 minutes at 4° C. to allow the strepavidin to interact with the biotinylated FGFR. The tubes are removed from the roller and spun down in a microfuge for 2 minutes at 3000 rpm. Using magnets, the magnetic beads are washed twice with binding buffer. 100 μl of binding buffer is added to each tube and the contents are moved to a 12×75 mm test tube. The contents (i.e., strepavidin beads, with biotinylated FGFR and ^125 I-bFGF bound thereto) are counted in a Gamma counter. The ability of a test compound to bind to FGFR is evidenced by the reduced binding of ^125 I-bFGF to the biotinylated FGFR in the presence of the test compound as compared to the binding of ^125 I-bFGF to the biotinylated FGFR in the absence of the test compound.

[2] = tested on: NIH 3T3 cells; assay type: cell-based
Experimental: A second functional assay for FGFR is a proliferation assay, based on the fact that NIH 3T3 cells show enhanced growth in the presence of increasing concentrations of bFGF. NIH 3T3 cells are cultured (e.g., about 3 days) with bFGF (10 nM) in the presence or absence of a test peptide compound. Cell growth is quantitated using a standard method for detecting cell growth, such as tritiated thymidine incorporation or uptake of 3, ([…])2,5-diphenyl-tetrazolium bromide (MTT). MTT (commercially available from Sigma Chemical Co.) is a chromogenic substrate that is converted from yellow to blue in viable cells, which can be detected spectrophotometrically.

[3] = tested on: p42-MAP kinase; assay: Signal transduction assay: bFGF-induced phosphorylation/activation of MAP kinase in NIH 3T3 cells; assay type: cell-based
Excerpt: The effect of peptide compounds on the functional activity of an FGF receptor can be evaluated in one or both of the functional assays described in this example. The first assay is a signal transduction assay, exploiting the fact that bFGF binding to FGFR initiates a phosphorylation cascade that includes the phosphorylation of MAP kinase (MAP-K). Accordingly, the ability of a test compound to modulate bFGF-induced phosphorylation of MAP-K is examined. NIH 3T3 cells are synchronized to quiescence by growing in medium containing 0.5% fetal bovine serum (FBS) for 2 days. The cells are then shifted into fresh 0.5% FBS-containing medium for 2 hours to reduce the basal level of MAP-K phosphorylation before the experiment. Test peptide compounds are dissolved in fresh dimethyl sulfoxide (DMSO) to 100 mg/ml and series dilutions are made in DMSO. […] Phosphorylation of MAP-K in the 3T3 cells is initiated by incubating the cells with the bFGF-containing medium in the presence or absence of test peptide for 15 minutes at 37° C. The phosphorylation is stopped by washing with cells with PBS and lysing the cells with sodium […] (SDS)-containing buffer. Cell lysates are separated on 12% SDS polyacrylamide gels and the proteins are transferred onto PVDF membranes. Membrane-bound cellular proteins are probed with a rabbit anti-phosphoMAP-K antibodies, followed by a goat anti-rabbit secondary antibody, labeled with horse radish peroxidase. The blots are then detected by the enhanced chemiluminescence (ECL) method.

[4] = Table 5 peptides (bFGF-binding peptides)
[5] = Table 3 peptides, inhibition of bFGF binding to FGFR2-IIIC
[6] = Table 3 peptides, values given in mM
[7] = Table 3 peptides, bFGF-induced MAP-K phosphorylation, read-out: MAP-K

FGFR2-IIIC, sequence (P21802 22-377 limits assumed, species assumed): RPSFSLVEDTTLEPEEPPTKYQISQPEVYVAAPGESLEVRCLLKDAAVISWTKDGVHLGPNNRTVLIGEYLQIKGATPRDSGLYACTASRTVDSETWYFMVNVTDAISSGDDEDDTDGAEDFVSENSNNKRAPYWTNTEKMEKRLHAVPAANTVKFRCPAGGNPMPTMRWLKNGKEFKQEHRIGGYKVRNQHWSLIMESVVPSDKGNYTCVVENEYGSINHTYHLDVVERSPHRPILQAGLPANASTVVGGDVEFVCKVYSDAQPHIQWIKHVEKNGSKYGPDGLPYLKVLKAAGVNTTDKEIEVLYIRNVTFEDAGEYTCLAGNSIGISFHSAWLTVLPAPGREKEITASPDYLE

Compound | IC50 [2] | IC50 [1, 5] | other results
CC(C)C[C@H](NC(=O)[C@H](CC(C)C)NC(=O)[C@H](CC(=O)O)NC(=O)[C@H](CC(=O)O)NC(=O)[C@H](Cc1c[nH]c2ccccc12)NC(=O)[C@H](CC(=O)O)NC(=O)[C@H](Cc1ccc(O)cc1)NC(=O)CNC(=O)[C@H](C)NC(=O)[C@H](C)NC(=O)CNC(=O)[C@H](CC(=O)O)NC(=O)[C@H](C)NC(=O)CCCC[C@@H]1SC[C@@H]2NC(=O)N[C@@H]21)C(=O)N[C@@H](CO)C(=O)NCC(=O)N[C@@H](C)C(=O)N[C@@H](C)C(N)=O [Compound 476, Biotin-ADGAAGYDWDDLLSGAA-NH] (Biotin-ADGAAGYDWDDLLSGAA-NH2) | > 100 µM | – | IC50 [1, 4]: > 0.1 mM
CC(C)C[C@H](NC(=O)[C@H](CC(C)C)NC(=O)[C@H](CC(=O)O)NC(=O)[C@H](CC(=O)O)NC(=O)[C@H](Cc1c[nH]c2ccccc12)NC(=O)[C@H](CC(=O)O)NC(=O)[C@H](Cc1ccc(O)cc1)NC(=O)CNC(=O)[C@H](C)NC(=O)[C@H](C)NC(=O)CNC(=O)[C@H](CC(=O)O)NC(=O)[C@H](C)NC(=O)CCCC[C@@H]1SC[C@@H]2NC(=O)N[C@@H]21)C(=O)NCC(=O)NCC(=O)N[C@@H](C)C(=O)N[C@@H](C)C(N)=O [Compound 478, Biotin-ADGAAGYDWDDLLGGAA-NH] (Biotin-ADGAAGYDWDDLLGGAA-NH2) | > 100 µM | – | IC50 [1, 4]: > 0.1 mM
CC(C)C[C@H](NC(=O)[C@H](CC(=O)O)NC(=O)[C@@H](NC(=O)[C@H](CS)NC(=O)CNC(=O)[C@H](C)NC(=O)[C@H](C)NC(=O)CNC(=O)[C@H](CC(=O)O)NC(=O)[C@H](C)N)C(C)C)C(=O)N[C@@H](Cc1ccc(O)cc1)C(=O)N[C@@H](Cc1c[nH]cn1)C(=O)N[C@@H](Cc1ccc(O)cc1)C(=O)N[C@H](C(=O)N[C@@H](Cc1ccc(O)cc1)C(=O)N[C@@H](CS)C(=O)NCC(=O)NCC(=O)N[C@@H](C)C(=O)N[C@@H](C)C(N)=O)C(C)C [Compound 507] (H-ADGAAGCVDLYHYVYCGGAA-NH2) | 10 to 100 µM | – | Effect on proliferative activity of bFGF ([2]; NIH 3T3 cells): antagonists of the proliferative activity of bFGF
CC(=O)NCC(=O)N[C@@H](CS)C(=O)N[C@H](C(=O)N[C@@H](CC(C)C)C(=O)N[C@@H](CC(C)C)C(=O)N[C@@H](Cc1ccc(O)cc1)C(=O)N[C@@H](CC(=O)O)C(=O)N[C@@H](CCC(=O)O)C(=O)N[C@@H](CCCNC(=N)N)C(=O)N[C@H](C(=O)N[C@@H](CS)C(=O)NCC(N)=O)[C@@H](C)O)C(C)C [Compound 513, Acetyl-GCVLLYDERTCG-NH] (Ac-GCVLLYDERTCG-NH2) | > 100 µM | – | –
CC(=O)NCC(=O)N[C@@H](CS)C(=O)N[C@H](C(=O)N[C@@H](CC(=O)O)C(=O)N[C@@H](CC(C)C)C(=O)N[C@@H](Cc1ccc(O)cc1)C(=O)N[C@@H](Cc1c[nH]cn1)C(=O)N[C@@H](Cc1ccc(O)cc1)C(=O)N[C@H](C(=O)N[C@@H](Cc1ccc(O)cc1)C(=O)N[C@@H](CS)C(=O)NCC(N)=O)C(C)C)C(C)C [Compound 514, Acetyl-GCVDLYHYVYCG-NH] (Ac-GCVDLYHYVYCG-NH2) | 10 to 100 µM | – | Effect on proliferative activity of bFGF ([2]; NIH 3T3 cells): antagonists of the proliferative activity of bFGF; IC50 ([3]; Table 5 peptides, read-out: MAP-K): ~50 µM
ADGAAGSWGDWERSGDWFGGAA-NH2 [Compound 509] | > 100 µM | – | IC50 [1, 4]: > 0.1 mM
ADGAAGYDWDDLLGGAA-NH2 [Compound 477, H-ADGAAGYDWDDLLGGAA-NH*TFA] | > 100 µM | – | IC50 [1, 4]: > 0.1 mM
ADGAAGYDWDDLLSGAA-NH2 [Compound 475, H-ADGAAGYDWDDLLSGAA-NH*TFA] | > 100 µM | – | IC50 [1, 4]: > 0.1 mM
AHYLRQYLMRFR-NH2 [Compound 673, H-AHYLRQYLMRFR-NH*TFA] | – | ~0.008 mM | –
Ac-GHDGEMYG-OH [Compound 660, Acetyl-GHDGEMYG-OH] | – | – | IC50 [1, 6]: > 1 mM
Ac-GSWGDWERSGDWFG-NH2 [Compound 512, Acetyl-GSWGDWERSGDWFG-NH] | > 100 µM | – | IC50 [1, 4]: > 0.1 mM
GAHNLRQYLMRFLG [Compound 623, H-GAHNLRQYLMRFLG-OH*TFA] | ~100 µM | ~0.12 mM | IC50 [3, 7]: ~50 µM; Effect on activation of MAP-K by bFGF ([3]; increasing concentrations of compound): clearly antagonized
GAHYLRQYLMRFLG-NH2 [Compound 658, H-GAHYLRQYLMRFLG-NH*TFA] | – | ~0.008 mM | IC50 ([2]; NIH 3T3 cells, 10 nM bFGF, FIG. 6, read-out: Concentration that half maximally reduces bFGF-induced proliferation): 40 µM; IC50 ([3]; 1 nM bFGF, FIG. 5, read-out: Concentration that half maximally antagonizes bFGF activation of MAP-K): ~3 µM; IC50 [3, 7]: ~1 µM
GAHYLRQYLMRFRG-NH2 [Compound 668, H-GAHYLRQYLMRFRG-NH*TFA] | – | ~0.003 mM | –
GAHYLRQYMMRFLG-NH2 [Compound 669, H-GAHYLRQYMMRFLG-NH*TFA] | – | ~0.02 mM | –
GDVFLSMYQFSVIG [Compound 622, H-GDVFLSMYQFSVIG-OH*TFA] | – | > 0.1 mM | –
GFLGKYMESLMRMG-NH2 [Compound 659, H-GFLGKYMESLMRMG-NH*TFA] | – | ~0.3 mM | –
GFLMMYMMG [Compound 566, H-GFLMMYMMG-OH*TFA] | – | > 0.1 mM | –
GKALEWYKSLMRMG-NH2 [Compound 661, H-GKALEWYKSLMRMG-NH*TFA] | – | ~0.3 mM | –
GSLMRMG-NH2 [Compound 663, H-GSLMRMG-NH*TFA] | – | – | IC50 [1, 6]: > 1 mM
GYFQYMALYG [Compound 567, H-GYFQYMALYG-OH*TFA] | – | > 0.1 mM | –
GYLAQYMARG-NH2 [Compound 662, H-GYLAQYMARG-NH*TFA] | – | ~0.3 mM | –
GYLYLYMVG [Compound 656, H-GYLYLYMVG-OH*TFA] | – | > 0.1 mM | –
GYYLLWMVG [Compound 564, H-GYYLLWMVG-OH*TFA] | – | > 0.1 mM | –
HYLRQYLMRFR-NH2 [Compound 672, H-HYLRQYLMRFR-NH*TFA] | – | ~0.008 mM | –
LRQYLMRFR-NH2 [Compound 670, H-LRQYLMRFR-NH*TFA] | – | ~0.12 mM | –
YLRQYLMRFR-NH2 [Compound 671, H-YLRQYLMRFR-NH*TFA] | – | ~0.008 mM | Binding IC50 [1, 5]: does not appear to further increase the IC50
bFGF: basic fibroblast growth factor, the FGF receptor ligand used as stimulus and unlabeled competitor [reference compound] | – | – | Activation of MAP-K ([3]; 1 and 10 nM, without test peptide, FIG. 3): 40-60%
